Reference: patent US7105296B2, “Genes encoding Baeyer-Villiger monooxygenases” (E. I. du Pont de Nemours and Company, priority 2001, dated 2006)

Experiments:
Experiment in all cases: chnB monooxygenase activity by NADPH oxidation at 340 nm
Type in all cases: biochemical
[1] = test system: Rhodococcus sp. phi1 chnB monooxygenase; details: purified over-expressed enzyme; 1.25 mM substrate; pH 7.5; ND = No Activity Detected
From the text: (§1) Following amplification, the chnB gene fragments were cloned into pTrcHis-TOPO TA vectors with either an N-terminal tail or C-terminal tail, as provided by the vector sequence (N-terminal tail for Brevibacterium sp. HCU, Rhodococcus sp. phi1, Rhodococcus sp. phi2, and Arthrobacter sp. BP2 monooxygenases; C-terminal tail for Acinetobacter sp. SE19 and Acidovorax sp. CHX monooxygenases). These vectors were transformed into E. coli, with transformants grown in Luria-Bertani broth supplemented with ampicillin (100 ug/ml) and riboflavin (0.1 ug/ml) at 30° C. until the absorbance at 600 nm (A600) reached 0.5. When the A600 was reached, the temperature was shifted to 16° C.
(§2) The encoded monooxygenase sequences were expressed upon addition of IPTG to the culture media, 30 min after the temperature shift to 16° C. The cultures were grown further overnight (14 hrs) and harvested by centrifugation in a cold centrifuge. The cells were treated with lysozyme (100 mg/ml) for 30 min on ice and sonicated. Following sonication, cell extracts were centrifuged and the supernatant was equilibrated with Ni-NTA resin (Qiagen, Valencia, Calif.) for 1 hr at 4° C. Protein bound resin was washed successively with increasing concentrations of imidazole buffer until the protein of interest was released from the resin. The purified protein was concentrated and the buffer exchanged to remove the imidazole. The protein concentration was adjusted to 1 ug/ml.
(§3) Compounds were selected on the basis of previous observations by van der Werf (J. Biochem. 347:693–701 (2000)) and Miyamoto et al. (Biochimica et Biophysica Acta 1251: 115–124 (1995)) and by searches for the ketone substructure.
(§4) All compounds were obtained from Sigma-Aldrich with only two exceptions. Levoglucosenone was obtained from Toronto Research Chemicals, Inc. and dimethyl-2-piperidone was prepared according to U.S. Pat. No. 6,077,955. For enzyme assays all compounds were dissolved to a concentration of 0.1 M in methanol, with the exceptions of norcamphor (dissolved in ethyl acetate), cyclododecanone, cycltridecanone and cyclopentadecanone (dissolved in propanol), and levoglucosenone (dissolved with acetone).
(§5) The monooxygenase activity of each over-expressed enzyme was assayed spectrophotometrically at 340 nm by monitoring the oxidation of NADPH. Assays were performed in individual quartz cuvettes, with a pathlength of 1 cm. […] An Ultrospec 4000 (Pharmacia Biotech, Cambridge, England) was used to read the absorbance of the samples over a two to ten minute time period and the SWIFT (Pharmacia Biotech) program was used to calculate the slope of the reduction in absorbance over time. For the Brevibacterium sp. […] Monooxygenase activity of each over-expressed enzyme is shown in Table 5, with respect to each ketone substrate. The specific activity values listed are given in umol/min/mg. The notation “ND” refers to “No Activity Detected”.

[2] = test system: Acidovorax sp. CHX chnB monooxygenase; details: purified over-expressed enzyme; 1.25 mM substrate; pH 7.5; ND = No Activity Detected
From the text: as §1, §2, §3, §4, §5

[3] = target: T1, Acinetobacter sp. SE19 chnB monooxygenase (Acinetobacter sp., UniProt Q9F7E4); details: purified over-expressed enzyme; 1.25 mM substrate; pH 7.5; ND = No Activity Detected
T1 construct: expression in E. coli of isolated full length BVMO genes from Brevibacterium sp; HCU, Acinetobacter SE19; C-terminal tail provided by the pTrcHis-TOPO vector (C); made in house; host or cells: E. coli
From the text: as §1, §2, §3, §4, §5

[4] = test system: Rhodococcus sp. phi2 chnB monooxygenase; details: purified over-expressed enzyme; 1.25 mM substrate; pH 7.5; ND = No Activity Detected
From the text: as §1, §2, §3, §4, §5

[5] = test system: Brevibacterium sp. HCU chnB1 monooxygenase; details: purified over-expressed enzyme; 1.25 mM substrate; pH 7.5; ND = No Activity Detected
From the text: as §1, §2, §3, §4, §5

[6] = test system: Brevibacterium sp. HCU chnB2 monooxygenase; details: purified over-expressed enzyme; 1.25 mM substrate; pH 7.5; rates multiplied by a factor of 3.25 to adjust for decrease in activity due to storage; ND = No Activity Detected
From the text: as §1, §2, §3, §4, §5

[7] = test system: Arthrobacter sp. BP2 chnB monooxygenase; details: purified over-expressed enzyme; 1.25 mM substrate; pH 7.5; ND = No Activity Detected
From the text: as §1, §2, §3, §4, §5

SMILES | Specific Activity of Monooxygenase Enzymes Against Various Ketone Substrates, sp. phi1 chnB [1] [µmol/min/mg] | Specific Activity of Monooxygenase Enzymes Against Various Ketone Substrates, sp. CHX chnB [2] [µmol/min/mg] | further results
CCCCCCCCCCCC(C)=O [2-tridecanone] | 0.160 | 0.096 | 
O=C1CCCCCCCCC1 [Cyclodecanone] | 0.077 | 0.160 | Specific Activity of Monooxygenase Enzymes Against Various Ketone Substrates, sp. SE19 chnB [3]: 0.320 µmol/min/mg
O=C1CCCCC1c1ccccc1 (centres unmarked) [2-phenyl-cyclohexanone] |  |  | Specific Activity of Monooxygenase Enzymes Against Various Ketone Substrates, sp. phi2 chnB [4]: 0.730 µmol/min/mg
C[S+](C)[O-] [dimethyl sulfoxide] |  |  | Specific Activity of Monooxygenase Enzymes Against Various Ketone Substrates, sp. HCU chnB1 [5]: 0.230 µmol/min/mg
CCCCCCC(=O)CCCCCC [dihexyl ketone] | 0.160 |  | Specific Activity of Monooxygenase Enzymes Against Various Ketone Substrates, sp. HCU chnB2 [6]: 0.270 µmol/min/mg
O=C1CC2CC[C@H]1C2 [Norcamphor] |  |  | Specific Activity of Monooxygenase Enzymes Against Various Ketone Substrates, sp. HCU chnB1 [5]: 0.410 µmol/min/mg
O=C1CCCCC1=O [1,2-cyclohexanedione] | 0.083 | 0.096 | Specific Activity of Monooxygenase Enzymes Against Various Ketone Substrates, sp. SE19 chnB [3]: 0.077 µmol/min/mg
O=C1CCCCCCC1 [Cyclooctanone] |  | 0.410 | 
O=C1CCCCCCCCCCC1 [Cyclododecanone] |  | 0.051 | 
O=C1CCCCCCCCCC1 [Cycloundecanone] |  | 0.058 | Specific Activity of Monooxygenase Enzymes Against Various Ketone Substrates, sp. SE19 chnB [3]: 0.064 µmol/min/mg; Specific Activity of Monooxygenase Enzymes Against Various Ketone Substrates, sp. BP2 chnB [7]: 0.064 µmol/min/mg; Specific Activity of Monooxygenase Enzymes Against Various Ketone Substrates, sp. phi2 chnB [4]: 0.051 µmol/min/mg
O=C1CCCC(=O)C1 [1,3-cyclohexanedione] |  | 0.032 | 
